Experimental data published in PMC4910235, “Selenophene and thiophene-core estrogen receptor ligands that inhibit motility and development of parasitic stages of Haemonchus contortus” (Parasites & Vectors, 2016).
“Also recorded” adds a separate entry of the source. Like-named read-outs stand apart in the source and are kept apart here.

Columns and labels:
[1] = tested on: fourth-stage larvae (L4s) of H. contortus; assay: L4 motility assay; type: cell-based
Method: The selenophene and thiophene-core ligands (n = 74) (Additional file 1) were screened at a concentration of 20 μM on exsheathed third-stage larvae (xL3s) of H. contortus in 96-well microculture plates (cat. no. 3635; Corning 3650, Life Sciences, Corning, USA) using relevant control compounds (i.e. moxidectin and monepantel), as described previously. In brief, compounds were dissolved to a stock concentration of 10 mM in either dimethyl sulfoxide (DMSO) or methanol (Sigma-Adrich Scientific, St. Louis, USA). These ligands were then individually diluted to the final concentration of 20 μM using Luria Bertani medium (LB) supplemented with 100 IU/ml of penicillin, 100 μg/ml of streptomycin and 2.5 μg/ml of amphotericin (LB*). Compounds were dispensed (in triplicate) into the wells of a 96-well microculture plate using a multichannel pipette. In addition, the negative controls (LB*, LB* + 0.5 % solvent; six wells each), and positive controls (20 μM of monepantel; Zolvix, Novartis Animal Health, Basel, Switzerland and 20 μM of moxidectin; Cydectin, Virbac, Carros, France; triplicate wells) and xL3s (~300/well) were dispensed into wells of the plate using an automated multichannel pipette (Viaflo Assist/II, Integra Biosciences, Zizers, Switzerland). […], a video recording (5 s) was taken of each well of the 96-well microculture plate (containing xL3s) using a greyscale camera (Rolera Bolt CMOS, Qimaging Scientific, Surrey, Canada) and a motorised X-Y axis stage (BioPoint 2, Ludl Electronics Products, Hawthorne, USA). Individual videos were processed to calculate a motility index (MI) using an algorithm described previously. MIs were normalised to the negative and positive controls (to remove plate-to-plate variation) using the program Prism (v.6 GraphPad Software, USA). Z’-scores were calculated to validate the performance of the screening assay; reliable assays achieve Z’-scores of between 0.5 and 1 [28]. […] Compounds that reduced the motility of xL3s were also tested for their ability to inhibit the motility of L4s (same protocol as for xL3s) and/or to affect the development of xL3s to L4s. Following the measurement of L4 motility, larvae were re-incubated for 4 more days and fixed with 1 % iodine (50 μl). Then, L4 development was assessed based on the presence of a well-developed mouth/pharynx using a light microscope and expressed as a percentage of the total number of larvae examined (n = 30).
All assays (to assess xL3 motility, L4 development and L4 motility) were performed in triplicate, three times, on separate days.

[2] = tested on: xL3 stage of H. contortus; assay: Scanning electron microscopy of treated xL3s; type: cell-based, Haemonchus contortus; details: 100 μM, 24 h
Method: (§1) SEM was used to assess whether compounds that reduced motility by ≥ 70 % caused structural damage to the larval stages. The xL3s and L4s were cultivated as described previously. Compounds were diluted to a final concentration of 100 μM in LB*, and 50 μl were transferred to wells of a 96-well microculture plate; six wells were used for each treatment and for the negative control which contained LB* and 1 % methanol (AR1115-P2.5 L, RCI; Labscan Limited). The xL3s and L4s were resuspended in LB* at a density of ~6,000 per ml, and 50 μl were transferred into individual wells. Compounds were incubated with the larvae for 24 h at 38 °C and 10 % CO2. Following incubation, for each treatment, the larvae from each of the six wells were pooled into 1.5 ml Eppendorf tubes, washed 3 times in 0.9 % saline at 9,000 g and resuspended in 1 ml of phosphate-buffered saline (PBS). Subsequently, the larvae were fixed in 2.5 % glutaraldehyde in PBS for 2 h at room temperature, rinsed three times in PBS for 15 min, and then post-fixed in 1 % osmium tetroxide for 2 h at room temperature. Fixed larvae were rinsed again 3 times in PBS for 15 min. Then, aliquots of concentrated larvae (200 μl) were incubated on polyethyleneimine (PEI)-coated glass coverslips (pre-prepared by smearing 22 mm square glass coverslips with a 0.1 % solution of PEI and dried by heat under a cool flame). Following this incubation, the excess supernatant was removed, and the coverslips with adhered nematodes were dehydrated in increasing concentrations of ethanol (10, 30, 50, 70, 90 and 100 %) in water for 30 min. The coverslips were dried in a critical point dryer (EM CPD030, Leica, Wetzlar, Germany) and mounted on to aluminium stubs (25 mm) with double-sided carbon tabs. The coverslips were then coated with gold using a Xenosput sputter coater (Dynavac, Australia). The larvae on the coverslips were imaged using a field-emission scanning electron microscope (XL30 Philips, Netherlands) at 2.0 kV using a spot size of two; 12 representative images were taken of each sample.

[3] = tested on: L4 stage of H. contortus; assay: Scanning electron microscopy of treated L4s; type: cell-based, Haemonchus contortus; details: 100 μM, 24 h
Method: as §1

[4] = biological target: T1, ERα (Homo sapiens, UniProt P03372); assay: 3×ERE-luciferase reporter gene assay in HEK 293 T cells, ERα; type: cell-based
T1 construct: expressed in transfected cells; host or cells: HEK 293 T
T1 sequence (P03372 1-595): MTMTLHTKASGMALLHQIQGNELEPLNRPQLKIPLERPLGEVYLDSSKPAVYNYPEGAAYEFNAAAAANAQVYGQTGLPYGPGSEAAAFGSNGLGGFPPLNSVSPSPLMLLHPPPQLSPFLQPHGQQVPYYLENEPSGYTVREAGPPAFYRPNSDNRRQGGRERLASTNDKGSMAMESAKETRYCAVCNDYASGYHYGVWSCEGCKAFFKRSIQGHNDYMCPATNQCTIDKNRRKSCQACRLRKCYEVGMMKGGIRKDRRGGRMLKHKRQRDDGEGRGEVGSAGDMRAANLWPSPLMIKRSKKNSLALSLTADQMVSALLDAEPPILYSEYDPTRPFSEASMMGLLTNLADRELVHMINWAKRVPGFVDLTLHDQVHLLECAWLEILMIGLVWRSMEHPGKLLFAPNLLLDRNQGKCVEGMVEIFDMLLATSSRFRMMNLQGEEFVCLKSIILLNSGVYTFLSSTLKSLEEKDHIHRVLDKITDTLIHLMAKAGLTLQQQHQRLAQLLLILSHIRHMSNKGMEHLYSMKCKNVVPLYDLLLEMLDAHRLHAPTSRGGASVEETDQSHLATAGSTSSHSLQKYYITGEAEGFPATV
Method: Cells in phenol red-free DMEM with 10 % FBS were plated. […] The next day, the cells were treated with increasing doses of ER ligands diluted in phenol red-free DMEM with 10 % FBS. After 24 h, luciferase activity was measured using the dual-luciferase reporter assay system (Promega, Fitchburg, USA) performed according to the manufacturer’s protocol.

[5] = Haemonchus contortus, 24 h; read-out: L4 motility (IC50s in μM)
[6] = Haemonchus contortus, 48 h; read-out: L4 motility (IC50s in μM)
[7] = Haemonchus contortus, 72 h; read-out: L4 motility (IC50s in μM)
[8] = percentage of 10^-8 M 17β-estradiol, mean ± SD

Row | profile on ERα (agonist/antagonist) ([4]; luciferase reporter) | SMILES | IC50 [1, 5] [µM] | IC50 [1, 6] [µM] | IC50 [1, 7] [µM] | IC50 ([1]; Haemonchus contortus; read-out: L4 motility IC50 at both 48 h and 72 h) [µM] | structural damage of xL3s by SEM [2] | cuticle damage of L4s by SEM [3] | IC50 ([1]; Haemonchus contortus, 24 h, read-out: L4 motility (IC50s in μM)) [µM] | IC50 ([1]; Haemonchus contortus, 48 h, read-out: L4 motility (IC50s in μM)) [µM] | IC50 ([1]; Haemonchus contortus, 72 h, read-out: L4 motility (IC50s in μM)) [µM] | IC50 ([4]; against 10^-8 M E2, read-out: Antagonist mode ERα IC50) [µM] | EC50 ([4]; doses up to 10^-5 M, read-out: Agonist mode ERα EC50) [µM] | Agonist mode ERα Efficacy (%E2) [4, 8] [%E2] | Antagonist mode ERα Efficacy (%E2) [4, 8] [%E2]
1 |  | Oc1ccc(-c2cscc2-c2ccc(O)cc2Cl)c(Cl)c1 [MJ-17] | 13.9 | 6.2 | 6.1 | 6.1 to 6.2 | no structural damage | distinct damage |  |  |  |  |  |  | 
2 | super-agonist; also recorded: agonists | Cc1cc(O)ccc1-c1ccc(-c2ccc(O)cc2F)s1 [MJ-22] | 6.4 | 3.2 | 6.2 |  | no structural damage | distinct damage |  |  |  |  |  |  | 
3 |  | C[C@](C#N)(COc1cc(C#N)ccc1C(F)(F)F)NC(=O)c1ccc(SC(F)(F)F)cc1 [Monepantel, reference compound] | 4.3 | 2.2 | 3 |  |  | cuticle damage |  |  |  |  |  |  | 
4 |  | CO/N=C1\C[C@]2(C[C@@H]3C[C@@H](C/C=C(\C)C[C@@H](C)/C=C/C=C4\CO[C@@H]5[C@H](O)C(C)=C[C@@H](C(=O)O3)[C@]45O)O2)O[C@H](/C(C)=C/C(C)C)[C@H]1C [Moxidectin, reference compound] | 2.2 | 0.6 | 0.0045 |  |  | did not induce any cuticle damage |  |  |  |  |  |  | 
5 |  | Oc1ccc(-c2ccc(-c3ccc(O)cc3Cl)[se]2)c(Cl)c1 [WZY-2] |  |  |  |  | no structural damage | distinct damage | 9.3 | 6.1 | 6.2 | > 10 | > 10 | -21 ± 13 | 73 ± 8
